Experimental data taken from patent US8557958B1, “Compositions and methods for treatment of diabetes” (Tarix Pharmaceuticals Ltd., priority 2012, dated 2013).
“Also recorded” adds a separate entry of the source. Bridge positions count the residues as written; N and C are the ends. Ends that are not written are not given here.

Legend:
[1] = tested on: streptozotocin (STZ) induced diabetic mouse model; assay: Plasma insulin levels by mouse insulin ELISA in STZ induced diabetic mouse model (Example 1); type: in vivo, mouse (C57Bl/6); details: for Plasma insulin levels as compared to vehicle treated control: days 14 and 28; for Insulin (Mean): plasma
Method: (§1) Following acclimatization, mice were dosed intraperitoneally (IP) with 50 mg/kg STZ solubilized in 0.05 M sodium citrate at a volume of 100 μl per mouse for five consecutive days. Blood Glucose levels were monitored beginning day 4 post STZ using a glucose meter (Accu-Chek Advantage from Roche). On day six (after five days of STZ injection) mice were grouped into four groups having average blood glucose levels of 200 mg/dL. Two groups were dosed with PanCyte (SEQ ID NO:22) 50 and 500 μg/kg body weight respectively, one group was dosed with TXA-127 (SEQ ID NO:1) 500 ug/kg, and one group was dosed with PBS as vehicle control.
Plasma insulin levels were measured on days 14 and 28 after treatment. Blood samples (approximately 50 to 100 ul) were collected and processed for plasma by centrifugation. Plasma samples were then used for the measurement of insulin levels using a mouse sensitive insulin ELISA kit (ALPCO Diagnostic), according the to manufacturer's instructions.

adipocytes = details: administered directly to adipocytes in vitro; Liu, C. et al. 2011; cited from earlier work
[2] = tested on: streptozotocin (STZ) induced diabetic mouse model; assay: Blood glucose in STZ induced diabetic mouse model (Example 2); type: in vivo, mouse (C57Bl/6); details: for Blood Glucose (Mean): 50 μg/kg SC once daily; for Blood glucose levels as compared to vehicle treated group: 50 μg/kg body weight SC for twenty eight days
Method: C57Bl/6 female mice, 6-7 weeks old were used for the study and conditions were the same as for Example 1 above unless otherwise specified. Following acclimatization, mice were dosed intraperitoneally (IP) with 50 mg/kg STZ solubilized in 0.05 M sodium citrate buffer at a volume of 100 μl per mouse for five consecutive days. Blood Glucose levels were monitored on day 6 post STZ using Accu check glucose meter. Mice were grouped having average blood glucose levels of 200 mg/dL. There were three groups of ten mice each. Mice were dosed subcutaneously with Linear PanCyte (SEQ ID NO:6), PanCyte or vehicle for twenty-eight days. […]
Linear PanCyte and PanCyte were prepared in saline and administrated subcutaneously at a dose volume of 100 μl/mouse daily for twenty-eight days. Dosing solutions were prepared fresh every three days.
The blood glucose level was lowest in the groups treated with PanCyte 50 μg/kg followed by Linear-PanCyte 50 μg/kg.

diabetic mouse model = details: Bindom et al. 2010; cited from earlier work
[3] = tested on: streptozotocin (STZ) induced diabetic mouse model; assay: Blood glucose in STZ induced diabetic mouse model (Example 1); type: in vivo, mouse (C57Bl/6); details: 50 and 500 μg/kg body weight; monitored 3×/week for 4 weeks post STZ; FIG. 1
Description: Streptozotocin is a widely used chemical agent for producing Type-I Diabetes in experimental animals. The chemical is thought to cause Diabetes by direct action on the pancreatic beta cells and inhibits the insulin secretory mechanism. Depending upon the dosing regimen, streptozotocin can cause a mild, moderate, or severe diabetic condition.
C57Bl/6 female, 7-8 weeks old were used for the study. Upon arrival, mice were 6 weeks of age. All the mice were obtained from The Jackson Laboratory, Bar Harbor, Me. 04609, USA.
as §1
Blood glucose was be monitored 3×/week for 4 weeks post STZ. Blood glucose levels was be monitored using a glucose meter by placing a drop of blood directly on to the meter strip, and measuring according to manufacturer's instructions.

[4] = dose 500 μg (500 μg/kg body weight), day 14 after treatment
[5] = dose 500 μg (500 μg/kg body weight), day 28 after treatment

Substance | Plasma insulin levels as compared to vehicle treated control ([1]; 500 ug/kg weight) | Insulin (Mean) [1, 4] | Insulin (Mean) [1, 5] | Blood Glucose (Mean) ([2]; day 1) | Blood Glucose (Mean) ([2]; day 3) | Blood Glucose (Mean) ([2]; day 5) | Blood Glucose (Mean) ([2]; day 8) | Blood Glucose (Mean) ([2]; day 10) | Blood Glucose (Mean) ([2]; day 12) | Blood Glucose (Mean) ([2]; day 15) | Blood Glucose (Mean) ([2]; day 17) | Blood Glucose (Mean) ([2]; day 19) | Blood Glucose (Mean) ([2]; day 22) | Blood Glucose (Mean) ([2]; day 24) | Blood Glucose (Mean) ([2]; day 26) | Blood glucose levels as compared to vehicle treated group [2] | also measured
Asp^1-Arg^2-Val^3-Tyr^4-Ile^5-His^6-Pro^7 [TXA-127] | significantly higher levels of insulin | 1.097 ng/mL | 0.954 ng/mL |  |  |  |  |  |  |  |  |  |  |  |  |  | Glucose uptake (adipocytes): increased glucose uptake
Asp^1-Arg^2-Val^3-Ser^4-Ile^5-His^6-Cys^7 [Linear-PanCyte] (DRVSIHC; linear) |  |  |  | 222.8 mg/dL | 202.2 mg/dL | 220.7 mg/dL | 248.5 mg/dL | 252.1 mg/dL | 276.1 mg/dL | 278.6 mg/dL | 269.3 mg/dL | 280.7 mg/dL | 266.2 mg/dL | 256.3 mg/dL | 253 mg/dL | Significant differences; also recorded: lowered blood glucose levels significantly | 
D-Ala^7-Ang-(1-7) |  |  |  |  |  |  |  |  |  |  |  |  |  |  |  |  | Effect on the decrease in blood glucose and increase in insulin levels seen with ACE2 expression (diabetic mouse model): blocked the decrease in blood glucose
Asp^1-Arg^2-Val^3-Ser^4-Ile^5-His^6-Cys^7 [PanCyte] (DRVSIHC; bridge 4-7) | significantly higher levels of insulin | 1.016 ng/mL | 0.902 ng/mL | 223 mg/dL | 205.3 mg/dL | 197.8 mg/dL | 213.2 mg/dL | 230.7 mg/dL | 234.8 mg/dL | 232.5 mg/dL | 240.3 mg/dL | 230 mg/dL | 237.1 mg/dL | 237.3 mg/dL | 232.6 mg/dL | Significant differences; also recorded: lowered blood glucose levels significantly | Plasma insulin levels as compared to vehicle treated control ([1]; 50 ug/kg weight): significantly higher levels of insulin; Insulin (Mean) ([1]; dose 50 μg (50 μg/kg body weight), day 14 after treatment): 1.217 ng/mL; Insulin (Mean) ([1]; dose 50 μg (50 μg/kg body weight), day 28 after treatment): 1.244 ng/mL; Blood glucose levels [3]: decreased blood glucose levels
